Experimental data taken from the NIST ThermoML archive (doi:10.1021/acs.jced.7b01021).
± gives the expanded uncertainty stated by the source. Blank lines part the entries; values can stand above or below the compound they belong to.

Conditions: Liquid, Ebulliometric method (Recirculating still)

vapor or sublimation pressure (371.05 K): 101.33 ± 0.71 kPa
SMILES: CC(=O)OC(C)(C)C [1,1-dimethylethyl ethanoate]

vapor or sublimation pressure (355.59 K): 101.33 ± 0.71 kPa
SMILES: CC(C)(C)O [2-methylpropan-2-ol]

SMILES: Clc1ccccc1 [chlorobenzene]
vapor or sublimation pressure (404.8 K): 101.33 ± 0.71 kPa
